Assay results published in patent US9981043B2, “Analgesic conjugates” (priority 2013, dated 2018).
Values joined by “and” are separate entries in the source; they are usually repeats but may differ in a detail not shown here. Identical values can stand only once. “Also recorded” adds a separate entry of the source.

Experiments:
Format in all cases: in vivo
control mice [1] = experiment: Radiant tail flick antinociception, control (not pretreated) mice
Protocol: (§1) Compounds were dissolved in 10% DMSO and then diluted to less than 1% DMSO in the test solutions. […] Compounds were administered in a 5-μl volume in conscious mice, either i.c.v. (Haley T J & McCormick W G, Br J Pharmacol Chemother, 1957, 12(1), 12-15) or i.t. (Hylden J L K & Wilcox G L, Eur. J. Pharmacol., 1980, 67(2-3), 313-316). Peak times were determined by comparing the percent maximal possible effect (% MPE) at 5, 10, 20 and 60 minutes after injection.
(§2) The tail flick assay is used first to test for antinociception as described by D'Amour and Smith (D'AMOUR FE & SMITH DL (1941) J. Pharmacol. Exp. Ther. 72(1):74-79) and modified by Dewey et al. (Dewey W L, Harris L S, Howes J F, & Nuite JA (1970) J. Pharmacol. Exp. Ther. 175(2):435-442). For the measurement of the tail-flick latency, mice are wrapped in a light cloth and held gently in one hand with the tail positioned in the apparatus (Tail Flick Analgesia Meter, Columbus Instruments, Columbus, Ohio) for radiant heat stimulus. The tail-flick response is elicited by applying radiant heat to the dorsal side of the tail. The intensity of the heat is set so that the mouse flicks its tail within 2 to 3 seconds. The test latency is measured before drug treatment (control) and again after the drug treatment (test) at the peak time of the compound; a 10 second maximum cut-off time is used to prevent damage to the tail. Antinociception is quantified according to the Harris L S & Pierson A K, J. Pharmacol. Exp. Ther., 1964, 143(2):141-148, as the percent maximal possible effect (% MPE), which is calculated as: % MPE=(Test−Control/10−Control)×100.
(§3) At least three groups of four to ten mice are used for each dose response curve. ED50 values with 95% confidence intervals (C.I.) are computed with GraphPad Prism 4 by using nonlinear regression methods.

LPS pretreated mice [2] = experiment: Radiant tail flick antinociception, LPS pretreated mice
Protocol: as §1
The first group mice were pretreated with lipopolysaccaride (LPS, 1 mg/kg, i.p. from Escherichia coli 0111:B4; Sigma-Aldrich, St. Louis, Mo.) for 24 hours before testing for antinociception of compounds 2-6 (Seo Y-J, et al., Pharmacol., Biochem. Behav., 2008, 91, 121-127). This group was compared to a group without pretreatment.
as §2, §3

control mice [3] = experiment: Acute (24 hour) tolerance, tail flick, control mice; conditions: controls
Protocol: (§4) Acute tolerance utilizing the radiant tail flick assay was measured by comparing the ED80-90 dose on day 1 to the same dose measured 24 hours later on the same mouse. For the LPS pretreated mice, no additional LPS was given to the mice for the acute tolerance test. […] However, the effect was less robust 72 hours after the initial LPS injection. Thus confirming that the acute tolerance test was accurate for the LPS pretreated mice.

LPS pretreated mice [4] = experiment: Acute (24 hour) tolerance, tail flick, LPS pretreated mice; conditions: for Tolerance: 24 hours
Protocol: as §4

live mice = experiment: Respiratory depression (Mouse Ox O2 saturation); conditions: for % of mice with O2 Saturation less than 90%: i.t., LPS
Protocol: Respiratory depression was measured in live mice using the Mouse Ox (small animal Oximeter from STARR Life Sciences Corp, Oakmont, Pa.). CollarClip™—(Un-Anesthetized Neck Sensor) for mice was used as the site for measuring the data. Day one of each experiment involved training the animals using a disposable CollarClip™. The collar was left on for approximately one hour. […] Mice were monitored for a 60-minute period, with measurements 10-20-30 and 60 minutes.
Respiratory depression was measured in live mice using the Mouse Ox (small animal Oximeter from STARR Life Sciences Corp, Oakmont, Pa.). CollarClip™ (Un-Anesthetized Neck Sensor) for mice was used as the site for measuring the data.
Day one of each experiment involved training the animals using a disposable CollarClip™. The collar was left on for approximately one hour.
Mice were monitored for a 60-minute period, with measurements 10-20-30 and 60 minutes.

In the case of `Cc1cccc(C#Cc2cccc(OCCNC(=O)COCC(=O)NCCCCCNC(=O)COCC(=O)N[C@H]3CC[C@@]4(O)C5Cc6ccc(O)c7c6[C@@]4(CCN5C)[C@H]3O7)c2)n1` [Compound 4c, N-((4aS,7S,7aR,12bS)-4a,9-dihydroxy-3-methyl-2,3,4,4a,5,6,7,7a-octahydro-1H-4,12-methanobenzofuro[3,2-e]isoquinolin-7-yl)-2-((1-(3-((6-methylpyridin-2-yl)ethynyl)phenoxy)-4,8,16-trioxo-6-oxa-3,9,15-triazaheptadecan-17-yl)oxy)acetamide], the agonist character (control mice [1]; control mice, i.c.v.) is reported as “partial agonist”, the “% MPE” value (control mice [1]; controls, i.c.v., 250 pmol/mouse) is reported as 71 ± 10% MPE and the “ED50 (CI) i.t.” value (control mice [1]; controls, i.t., tail flick) is reported as 38.70 pmol/mouse. The “ED50 (CI) i.c.v.” value (LPS pretreated mice [2]; LPS pretreated (1 mg/kg 24 hours i.p.), i.c.v.) was 374.9 pmol/mouse, the “ED50 (CI) i.t.” value (LPS pretreated mice [2]; LPS pretreated (1 mg/kg 24 hours i.p.), i.t.) was < 9 fmol/mouse and 9 fmol/mouse and 8.83 fmol/mouse and the antinociception (LPS pretreated mice [2]; LPS pretreated, tail flick, dose of the acute tolerance test) was 97%. For the same compound, the Tolerance (control mice [3]; i.c.v.) was “No Tolerance”, the Tolerance (control mice [3]; i.t.) was “No Tolerance” and the “% MPE remaining in 24 hour tolerance test” value (LPS pretreated mice [4]; i.c.v., 24 hour) was “Still was 40% MPE”. The Tolerance (LPS pretreated mice [4]; i.c.v.) was 24 hour tolerance, the Tolerance (LPS pretreated mice [4]; i.t.) was “without tolerance; also recorded: No Tolerance” and the safety margin (live mice; compared with morphine) was “greater safety margin than morphine”. For the same compound, the therapeutic index (live mice; estimated) was “greater than a million”, the “% of mice with O2 Saturation less than 90%” value (live mice; dose 50,000 times the ED90) was 0% and the “% of mice with O2 Saturation less than 90%” value (live mice; dose 100,000 times the ED90) was 100%. For the same compound, the respiratory depression (live mice; mouse, in vivo) was “no tolerance or respiratory depression”.
